Measured values from publication PMC5333395, “Assessing histone demethylase inhibitors in cells: lessons learned” (Epigenetics & Chromatin, 2017).

Tests used:
Test in all cases: High-content immunofluorescence (IF) assay, overexpressed full-length FLAG-tagged KDM in HeLa cells
Type in all cases: cell-based
KDM2A = target: T1, KDM2A (Homo sapiens, UniProt Q9Y2K7); settings: HeLa cells overexpressing WT KDM2A, 24 h; read-out: KDM2A, in cells, EC50 by IF assay (head: IC50)
T1 sequence (Q9Y2K7 1-1162): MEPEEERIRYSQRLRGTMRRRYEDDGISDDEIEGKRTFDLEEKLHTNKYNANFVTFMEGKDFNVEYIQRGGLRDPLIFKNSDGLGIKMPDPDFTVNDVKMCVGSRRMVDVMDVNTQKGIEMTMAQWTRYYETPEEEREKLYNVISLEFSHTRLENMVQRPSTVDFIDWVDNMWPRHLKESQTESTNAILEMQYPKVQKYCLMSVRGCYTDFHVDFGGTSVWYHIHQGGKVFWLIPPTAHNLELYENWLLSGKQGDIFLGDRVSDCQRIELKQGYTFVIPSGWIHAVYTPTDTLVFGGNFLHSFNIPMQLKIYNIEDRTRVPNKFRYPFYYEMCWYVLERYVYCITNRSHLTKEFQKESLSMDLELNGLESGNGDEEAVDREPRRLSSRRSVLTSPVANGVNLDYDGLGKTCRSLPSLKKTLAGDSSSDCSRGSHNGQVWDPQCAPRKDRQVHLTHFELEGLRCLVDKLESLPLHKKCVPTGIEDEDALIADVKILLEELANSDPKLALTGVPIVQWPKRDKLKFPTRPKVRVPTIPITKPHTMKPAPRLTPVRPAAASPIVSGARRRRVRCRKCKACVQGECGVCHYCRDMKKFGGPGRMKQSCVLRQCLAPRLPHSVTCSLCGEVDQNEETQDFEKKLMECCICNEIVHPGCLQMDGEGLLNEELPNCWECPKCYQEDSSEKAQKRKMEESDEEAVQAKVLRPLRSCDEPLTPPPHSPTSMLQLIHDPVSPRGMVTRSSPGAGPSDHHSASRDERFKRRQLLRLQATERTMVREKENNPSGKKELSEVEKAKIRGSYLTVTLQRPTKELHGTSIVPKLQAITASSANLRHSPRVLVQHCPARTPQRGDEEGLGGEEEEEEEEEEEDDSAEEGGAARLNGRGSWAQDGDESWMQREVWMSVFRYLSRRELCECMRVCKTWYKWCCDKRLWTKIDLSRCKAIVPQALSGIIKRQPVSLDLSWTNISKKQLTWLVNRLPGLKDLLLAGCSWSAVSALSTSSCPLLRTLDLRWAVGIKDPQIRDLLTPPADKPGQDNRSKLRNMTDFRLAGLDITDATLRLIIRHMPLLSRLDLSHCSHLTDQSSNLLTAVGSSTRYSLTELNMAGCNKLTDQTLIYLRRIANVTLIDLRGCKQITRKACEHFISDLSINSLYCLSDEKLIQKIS
Experimental: (§1) HeLa cells (ATCC) were cultured at 37 °C and 5% CO2 in Minimal Essential Media—Eagle (Sigma-Aldrich, UK) supplemented with 10% heat-inactivated foetal calf serum (FCS) (Gibco, UK), and 1% L-glutaMAX (Gibco, UK) in T75 flasks (Sarstedt, UK) and passaged regularly with TrypLE (Life Technologies, UK) before cells reached confluence. On day 0, 7000 cells per well were plated on a 96-well clear bottom CellCarrier plate (PerkinElmer, UK). The next day the cells were transfected with Lipofectamine 3000 (ThermoFisher Scientific, UK) following the manufacturer’s instructions. Briefly, 0.1 µg of plasmid DNA (encoding for the respective demethylase) and 0.15 µL of Lipofectamine 3000 were diluted in separate tubes containing 5 µL OptiMEM. 0.15 µL of P3000 was added to the tube with the DNA. The two solutions were then mixed gently and allowed to incubate for 5 min at room temperature. Next, the DNA-lipid complex was added to the cells for 4 h at 37 °C and 5% CO2.
(§2) Compound dilutions were made in a 96-well PCR plate (Starlab, UK). The culture medium was supplemented with 0.4% DMSO so that the solvent concentration was maintained throughout. Compounds were serially diluted at a 1:2 or 1:3 dilution ratio. Next, the cell culture plate was removed from the incubator and the medium was gently aspirated and replaced with the fresh medium containing diluted compounds.
(§3) Then cells were rinsed once with PBS and blocked for 30 min at room temperature using 3% v/v foetal calf serum diluted in PBS.

KDM6B = KDM6B (Homo sapiens, UniProt O15054); settings: HeLa cells overexpressing WT KDM6B, H3K27me3 mark, 24 h; read-out: KDM6B, in cells, EC50 by IF assay (head: IC50)
Experimental: as §1, §2, §3

KDM4A = target: T2, KDM4A (Homo sapiens, UniProt O75164, A482E); settings: HeLa cells transfected with KDM4A
T2 construct: transiently transfecting the full-length FLAG-tagged demethylase (WT) into cells; expressed in transfected cells; host or cells: HeLa
T2 sequence (O75164 1-1064 A482E): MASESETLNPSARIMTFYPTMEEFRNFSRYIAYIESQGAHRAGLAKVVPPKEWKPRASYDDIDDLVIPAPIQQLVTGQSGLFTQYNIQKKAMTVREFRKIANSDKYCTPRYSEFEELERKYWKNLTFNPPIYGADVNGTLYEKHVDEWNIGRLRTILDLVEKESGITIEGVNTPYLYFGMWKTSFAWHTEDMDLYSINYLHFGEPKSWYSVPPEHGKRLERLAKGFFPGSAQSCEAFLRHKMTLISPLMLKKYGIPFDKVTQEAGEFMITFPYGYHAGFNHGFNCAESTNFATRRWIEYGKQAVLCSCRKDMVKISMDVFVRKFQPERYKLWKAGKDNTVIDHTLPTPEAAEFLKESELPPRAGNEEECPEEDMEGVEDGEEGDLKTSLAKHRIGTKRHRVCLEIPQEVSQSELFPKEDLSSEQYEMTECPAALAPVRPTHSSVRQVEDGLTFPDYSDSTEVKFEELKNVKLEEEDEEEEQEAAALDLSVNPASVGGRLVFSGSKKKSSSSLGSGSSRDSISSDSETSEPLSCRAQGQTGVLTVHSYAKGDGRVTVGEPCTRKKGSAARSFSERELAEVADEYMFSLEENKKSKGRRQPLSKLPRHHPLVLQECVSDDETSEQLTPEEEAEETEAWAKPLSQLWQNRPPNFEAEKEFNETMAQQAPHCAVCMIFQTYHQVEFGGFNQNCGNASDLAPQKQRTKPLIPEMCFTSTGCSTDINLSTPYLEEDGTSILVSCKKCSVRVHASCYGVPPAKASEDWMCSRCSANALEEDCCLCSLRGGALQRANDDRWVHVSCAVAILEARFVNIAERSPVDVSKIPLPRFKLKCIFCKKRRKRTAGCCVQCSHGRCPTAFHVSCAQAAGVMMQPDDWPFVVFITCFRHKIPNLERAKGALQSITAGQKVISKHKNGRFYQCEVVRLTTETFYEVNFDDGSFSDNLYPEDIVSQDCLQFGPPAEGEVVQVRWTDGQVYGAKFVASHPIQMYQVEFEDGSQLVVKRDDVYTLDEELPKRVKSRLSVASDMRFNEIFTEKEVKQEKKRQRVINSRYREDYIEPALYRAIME
Experimental: as §1, §2, §3

KDM6B, sequence (O15054 whole entry): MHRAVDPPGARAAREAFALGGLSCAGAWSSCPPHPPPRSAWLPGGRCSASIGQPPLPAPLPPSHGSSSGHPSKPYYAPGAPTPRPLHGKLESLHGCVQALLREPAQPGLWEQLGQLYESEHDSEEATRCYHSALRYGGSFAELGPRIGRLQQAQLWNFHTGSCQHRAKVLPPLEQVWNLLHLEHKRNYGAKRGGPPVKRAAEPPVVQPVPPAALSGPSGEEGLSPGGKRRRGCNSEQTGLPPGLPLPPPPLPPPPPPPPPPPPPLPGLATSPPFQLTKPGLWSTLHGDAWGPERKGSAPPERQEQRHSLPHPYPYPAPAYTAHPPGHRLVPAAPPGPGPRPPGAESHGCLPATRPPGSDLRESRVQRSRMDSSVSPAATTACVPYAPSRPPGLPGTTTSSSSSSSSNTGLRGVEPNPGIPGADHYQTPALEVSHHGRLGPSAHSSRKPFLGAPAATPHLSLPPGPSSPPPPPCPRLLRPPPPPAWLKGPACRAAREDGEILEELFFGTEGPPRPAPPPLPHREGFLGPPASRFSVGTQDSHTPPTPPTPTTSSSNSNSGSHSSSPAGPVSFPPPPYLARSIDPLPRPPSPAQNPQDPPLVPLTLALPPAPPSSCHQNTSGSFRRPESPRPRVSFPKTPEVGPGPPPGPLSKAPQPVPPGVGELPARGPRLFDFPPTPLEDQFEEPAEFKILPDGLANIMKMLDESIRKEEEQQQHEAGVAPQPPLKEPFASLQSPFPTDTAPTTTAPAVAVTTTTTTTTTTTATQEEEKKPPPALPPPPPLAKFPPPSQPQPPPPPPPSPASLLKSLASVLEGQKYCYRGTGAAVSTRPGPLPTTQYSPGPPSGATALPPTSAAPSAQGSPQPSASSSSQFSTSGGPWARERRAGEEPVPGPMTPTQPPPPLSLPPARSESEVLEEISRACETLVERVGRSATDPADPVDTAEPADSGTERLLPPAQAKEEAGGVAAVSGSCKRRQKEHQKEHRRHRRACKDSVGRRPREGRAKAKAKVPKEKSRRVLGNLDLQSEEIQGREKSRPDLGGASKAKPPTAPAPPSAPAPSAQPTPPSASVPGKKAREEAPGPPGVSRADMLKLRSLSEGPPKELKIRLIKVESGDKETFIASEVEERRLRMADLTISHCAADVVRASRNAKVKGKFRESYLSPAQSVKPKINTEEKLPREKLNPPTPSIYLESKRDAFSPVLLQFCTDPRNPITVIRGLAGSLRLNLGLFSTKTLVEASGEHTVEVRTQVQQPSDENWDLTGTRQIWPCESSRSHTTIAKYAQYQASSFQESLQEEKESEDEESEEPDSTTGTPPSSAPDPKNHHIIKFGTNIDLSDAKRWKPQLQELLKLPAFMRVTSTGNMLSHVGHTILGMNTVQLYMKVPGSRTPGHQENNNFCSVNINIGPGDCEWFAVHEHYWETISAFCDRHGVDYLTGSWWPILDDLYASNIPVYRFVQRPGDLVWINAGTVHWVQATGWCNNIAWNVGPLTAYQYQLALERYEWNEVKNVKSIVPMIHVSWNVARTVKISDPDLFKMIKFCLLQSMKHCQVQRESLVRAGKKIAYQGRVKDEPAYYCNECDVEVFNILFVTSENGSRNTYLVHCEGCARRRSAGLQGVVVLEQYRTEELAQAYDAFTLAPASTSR

Effect on H3K9me3 levels in KDM4A IF assay, in words (KDM4A) | Compound | EC50 (KDM2A) | EC50 (KDM6B)
– | CCN(CCN(C)C)C(=O)CNCc1cncc(C(N)=O)c1 [KDOAM-32] | > 100 µM | > 100 µM
no effect | O=c1[nH]cnc2c(-n3cc(CCN4CCC(c5cccc(Cl)c5)CC4)cn3)cccc12 [CCT366293, 8-(4-(2-(4-(3-Chlorophenyl)piperidin-1-yl)ethyl)-1H-pyrazol-1-yl)quinazolin-4(3H)-one] | – | –
